Read-outs that look alike come from different tables or passages of the source.
Key:
[1] = test system: arrhythmia induced by Aconitine in mice; test: arrhythmia induced by Aconitine in mice; type: in vivo; settings: for antiarrhythmic activity (in words): Aconitine, mice; for change in vivo at 150 mg/kg / change in vivo at 40 mg/kg: Mus musculus, iv
Protocol: The antiarrhythmic effect of the compounds was also investigated in mice according to the P. W. Nwangwu, T. Holcslow procedure (4). Using Aconitine (5 mg/ml) as arrhythmogenic agent, the changes in the cardiac rhythm of the animals were recorded and the onset time of initial arrhythmia and/or of ventricular tachycardia were used as End point.
Antiarrhythmic agents display an increase in the latency time of initial ECG change.
(4) P. W. Nvangvu, T. L. Holcslow, Arch. Int. Pharmacodyn. 229, 219 (1977)
on the arrhythmia induced by Aconitine (5 γ/ml) in mice.
% increase of the time to onset of initial cardiac arrythmia

rabbit hearts = test: cardiokinetic effect on isolated rabbit heart (Langendorff) after anoxia; settings: equal concentrations in perfusion fluid, Student's t test versus controls
Protocol: The cardiokinetic effect on isolated heart was also investigated as follows. Rabbit hearts isolated by the Langendorff method were perfused with oxygenized ringer solution at 38.2° C. The isometric contractions, electrocardiogram and coronary flow were recorded using a "Battaglia-Rangoni" polygraph. By removing the oxygen from the perfusion fluid, metabolic damage was induced in the cardiac muscle, up to an 80% reduction in the cardiac contractile force.
Under these conditions of prolonged anoxia the aerobic glycolysis of the myocardium is slowed down, accompanied by the storage of acid catabolites due to both the accumulation of pyruvic acid and its conversion to lactic acid which cannot be utilized because of the depression of pyridine enzymes, such as LDH (lactodehydrogenase). This has repercussions on the anaerobic glycolysis affecting an ever increasing number of enzymes, accompanied by a progressive and increasingly critical exhaustion of the myocardium. Thus a whole series of cardiac muscle fatigue levels occurs which can be observed by the behavior of the examined parameters, namely the contractile force, coronary flow, heart rate and cardiac rhythm. As soon as the contractile force was reduced by 80%, the perfusion fluid was once again oxygenized either without adding other compounds (controls) or with the addition of the compounds under examination.
Table 2 below gives the percentage values of the contractile force of the heart, showing a positive inotropic effect, calculated after 10 minutes from the interruption of the anoxic period (myocardial restoration).
of some acyl derivatives of formula (I) on the contractile
force of rabbit's heart. (Details are given in the text)

rat's ventricle strip = test: antiarrhythmic effect, isolated rat ventricle strip test; settings: for antiarrhythmic properties (in words): isolated rat ventricle method; for inhibition at 1 µM / activation at 1 µM: Rattus norvegicus, concentration 1·10^-6 M; for inhibition at 1 µM: decrease; for activation at 1 µM: increase
Description: (2) M. Libonati and G. Segre, Archivio Italiano di Scienze Farmacologiche. Serie XIII, Vol. X, pag. 3, (1960)
effect of some acyl derivatives (concentration 1 · 10^-6
of the formula (1) on the rat's ventricle strip test.
% variation versus basal value.

[2] = acute toxicity (tolerance) i.p. in mice, Weil method; settings: mouse, in vivo, ip, Weil method (N = 5, K = 4)
Description: The tolerance of the Acyl-carnitines of the formula (I), as well as their salts administered by intraperitoneal route was investigated in mice using the Weil Method (1).
LD50, mg kg^-1 i.p. in mice,
of some acyl derivatives of formula (1).
Weil method (N = 5, K = 4)

[3] = test system: plasma cholesterol, triglycerides and lipoproteins in rat; test: plasma cholesterol, triglycerides and lipoproteins in rat treated with olive oil; type: in vivo; settings: for Lipoproteins, VLDL / Lipoproteins, HDL / Lipoproteins, LDL / cholesterol / triglycerides: olive oil 15 ml kg^-1 orally, compound ip, mean ± SEM, N = 8; for Lipoproteins, VLDL: oil control 15.84 ± 1.53; for Lipoproteins, HDL: oil control 24.18 ± 2.15; for Lipoproteins, LDL: oil control 57.38 ± 2.25; for cholesterol: oil control 88.33 ± 2.96; for triglycerides: oil control 213.66 ± 28.68
Protocol: In the rats the lipoproteic pattern altered due to an oil administration by gavage, was restored after a single treatment with d,l dipropyl ACAR; d,l ethyl exanoyl CAR; d,l 3 bromopropionyl CAR and d,l pyruvyl CAR.
The effect of some acyl derivatives of formula (I) on plasma cholesterol,
triglycerides and lipoproteins in rat
treated with olive oil, 15 ml kg^-1 orally. Mean Values ± SEM
Student "t" test .quadrature., Δ and indicate respectively a non
significant difference, a P ≤ 1% and 1%.

F.F.A. plasma levels = test: plasma free fatty acids in 17-hrs fasted rats; type: in vivo; settings: single i.p. 500 mg kg^-1, 17-hrs fasted rats
Protocol: In 17-hrs fasted rats the F.F.A. (fatty-free acids) splasms levels were reduced by a single i.p. administration with 500 mg kg^-s of d,l dipropyl ACAR; l dipropyl ACAR (ACAR=acetylcarnitine); d,l exanoyl CAR (CAR=carnitine) and d,l pyruvyl CAR.
The decrease, compared with untreated animals, was -35%, -29%, -41% and -65% respectively.

[4] = read-out: latency time increase % of controls, arrhythmias
[5] = read-out: latency time increase % of controls, tachycardia
[6] = read-out: maximed frequency (- %), % variation versus basal value
[7] = read-out: whole excitability (- %), % variation versus basal value
[8] = read-out: refractory period (+ %), % variation versus basal value
[9] = read-out: rheobase (+ %), % variation versus basal value

Structure (SMILES): CCCC(CCC)C(=O)OC(CC(=O)[O-])C[N+](C)(C)C (stereo not shown) [dipropyl acetyl]
- antiarrhythmic activity (in words) [1]: markedly exhibited
- positive inotropic effect (in words) (rabbit hearts): greater positive inotropic effect than that of the other compounds under examination
- antiarrhythmic properties (in words) (rat's ventricle strip): most clear out antiarrhythmic properties

Structure (SMILES): C[N+](C)(C)CC(CC(=O)[O-])OC(=O)C=Cc1ccccc1 (racemic) [d,l cinnamoyl CAR]
- change in vivo at 150 mg/kg [1, 4]: 20%
- change in vivo at 150 mg/kg [1, 5]: 8%
- LD50 [2]: 1120 mg/kg
- positive inotropic effect (in words) (rabbit hearts): greater positive inotropic effect than that of the other compounds under examination
- inhibition at 1 µM (rat's ventricle strip; [6]): 29.8%
- inhibition at 1 µM (rat's ventricle strip; [7]): 75.3%
- activation at 1 µM (rat's ventricle strip; [8]): 40.1%
- activation at 1 µM (rat's ventricle strip; [9]): 49.6%

Structure (SMILES): CC(=O)C(=O)OC(CC(=O)[O-])C[N+](C)(C)C (racemic) [d,l pyruvyl CAR]
- antiarrhythmic activity (in words) [1]: markedly exhibited
- change in vivo at 40 mg/kg [1, 4]: 80%
- change in vivo at 40 mg/kg [1, 5]: 60%
- LD50 [2]: 3900 mg/kg
- Lipoproteins, VLDL [3]: 10.15 ± 1.03%
- Lipoproteins, HDL [3]: 33.26 ± 2.17%
- Lipoproteins, LDL [3]: 50.15 ± 2.33%
- cholesterol [3]: 70.26 ± 2.74 mg/100 ml
- triglycerides [3]: 85.14 ± 7.22 mg/100 ml
- increase of HDL and decrease of LDL and VLDL (in words) ([3]; rats, single treatment): most marked effect
- lipoproteic pattern altered due to oil administration (in words) ([3]; rats, single treatment): restored
- triglycerides and cholesterol plasma levels increased after oil (in words) ([3]; rats, single treatment): active against the triglycerides and cholesterol plasma levels
- positive inotropic effect (in words) (rabbit hearts): greater positive inotropic effect than that of the other compounds under examination
- inhibition at 1 µM (rat's ventricle strip; [6]): 80.2%
- inhibition at 1 µM (rat's ventricle strip; [7]): 95.5%
- activation at 1 µM (rat's ventricle strip; [8]): 50.2%
- activation at 1 µM (rat's ventricle strip; [9]): 48.2%
- antiarrhythmic properties (in words) (rat's ventricle strip): most clear out antiarrhythmic properties
- decrease of F.F.A. plasma levels compared with untreated animals (F.F.A. plasma levels): -65%

Structure (SMILES): CCCCCC(=O)OC(CC(=O)[O-])C[N+](C)(C)C (stereo not shown) [d,l exanoyl CAR]
- decrease of F.F.A. plasma levels compared with untreated animals (F.F.A. plasma levels): -41%

Structure (SMILES): CC(C)(C)C(=O)OC(CC(=O)[O-])C[N+](C)(C)C (stereo not shown) [pivaloyl]
- positive inotropic effect (in words) (rabbit hearts): greater positive inotropic effect than that of the other compounds under examination
- antiarrhythmic properties (in words) (rat's ventricle strip): most clear out antiarrhythmic properties

Structure (SMILES): CCCC(CCC)C(=O)OC(CC(=O)[O-])C[N+](C)(C)C (racemic) [d,l dipropyl ACAR]
- change in vivo at 150 mg/kg [1, 4]: 65%
- change in vivo at 150 mg/kg [1, 5]: 55%
- LD50 [2]: 1700 mg/kg
- Lipoproteins, VLDL [3]: 13.26 ± 2.03%
- Lipoproteins, HDL [3]: 28.13 ± 3.27%
- Lipoproteins, LDL [3]: 50.12 ± 2.08%
- cholesterol [3]: 75.15 ± 3.11 mg/100 ml
- triglycerides [3]: 121.50 ± 11.13 mg/100 ml
- lipoproteic pattern altered due to oil administration (in words) ([3]; rats, single treatment): restored
- inhibition at 1 µM (rat's ventricle strip; [6]): 23.2%
- inhibition at 1 µM (rat's ventricle strip; [7]): 50.6%
- activation at 1 µM (rat's ventricle strip; [8]): 34.3%
- activation at 1 µM (rat's ventricle strip; [9]): 24.2%
- decrease of F.F.A. plasma levels compared with untreated animals (F.F.A. plasma levels): -35%

Structure (SMILES): CCCC(CCC)C(=O)O[C@H](CC(=O)[O-])C[N+](C)(C)C [l dipropyl ACAR]
- change in vivo at 40 mg/kg [1, 4]: 60%
- change in vivo at 40 mg/kg [1, 5]: 40%
- LD50 [2]: 294 mg/kg
- inhibition at 1 µM (rat's ventricle strip; [6]): 25.3%
- inhibition at 1 µM (rat's ventricle strip; [7]): 58.2%
- activation at 1 µM (rat's ventricle strip; [8]): 39.1%
- activation at 1 µM (rat's ventricle strip; [9]): 55.1%
- decrease of F.F.A. plasma levels compared with untreated animals (F.F.A. plasma levels): -29%

Source: patent US4401827A, “Novel acyl-derivatives of carnitine and process for their preparation” (Sigma-Tau, priority 1978, dated 1983)
